Experimental data reported in PMC3961306, “Comparison of the Cancer Gene Targeting and Biochemical Selectivities of All Targeted Kinase Inhibitors Approved for Clinical Use” (PLoS ONE, 2014).

Columns and labels:
Experiment in all cases: Kinase profiling in a biochemical assay panel (mobility shift assays and ELISA), %-inhibition at 1 μM; selectivity entropy
[1] = target: T1, panel of more than 300 wild-type and mutant kinases (313 kinase panel) (Homo sapiens, UniProt Q13188)
T1 sequence (Q13188 1-491): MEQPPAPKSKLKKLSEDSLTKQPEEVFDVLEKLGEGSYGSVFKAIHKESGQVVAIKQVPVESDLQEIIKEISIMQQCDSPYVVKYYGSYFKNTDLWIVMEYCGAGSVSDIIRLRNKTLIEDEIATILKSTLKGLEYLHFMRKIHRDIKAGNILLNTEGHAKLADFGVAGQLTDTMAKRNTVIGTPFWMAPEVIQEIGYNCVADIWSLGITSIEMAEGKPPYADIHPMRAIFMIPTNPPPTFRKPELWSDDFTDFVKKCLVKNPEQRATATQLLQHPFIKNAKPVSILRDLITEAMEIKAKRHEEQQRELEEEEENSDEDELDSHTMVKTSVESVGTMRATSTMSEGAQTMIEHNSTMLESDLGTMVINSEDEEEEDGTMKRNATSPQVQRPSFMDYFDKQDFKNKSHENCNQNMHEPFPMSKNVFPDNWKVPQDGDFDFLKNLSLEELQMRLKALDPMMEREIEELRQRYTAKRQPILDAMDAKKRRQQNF

[2] = target: panel of more than 300 wild-type and mutant kinases (313 kinase panel) (Homo sapiens, UniProt Q05397); details: kinase FAK; compound at 1 μM
[3] = target: panel of more than 300 wild-type and mutant kinases (313 kinase panel) (Homo sapiens, UniProt P50750)
[4] = target: panel of more than 300 wild-type and mutant kinases (313 kinase panel) (Homo sapiens, UniProt Q96SB4); details: kinase SRPK1; 1 μM
Chain of panel of more than 300 wild-type and mutant kinases (313 kinase panel) (Homo sapiens, UniProt Q96SB4) (Q96SB4 whole entry, change not shown): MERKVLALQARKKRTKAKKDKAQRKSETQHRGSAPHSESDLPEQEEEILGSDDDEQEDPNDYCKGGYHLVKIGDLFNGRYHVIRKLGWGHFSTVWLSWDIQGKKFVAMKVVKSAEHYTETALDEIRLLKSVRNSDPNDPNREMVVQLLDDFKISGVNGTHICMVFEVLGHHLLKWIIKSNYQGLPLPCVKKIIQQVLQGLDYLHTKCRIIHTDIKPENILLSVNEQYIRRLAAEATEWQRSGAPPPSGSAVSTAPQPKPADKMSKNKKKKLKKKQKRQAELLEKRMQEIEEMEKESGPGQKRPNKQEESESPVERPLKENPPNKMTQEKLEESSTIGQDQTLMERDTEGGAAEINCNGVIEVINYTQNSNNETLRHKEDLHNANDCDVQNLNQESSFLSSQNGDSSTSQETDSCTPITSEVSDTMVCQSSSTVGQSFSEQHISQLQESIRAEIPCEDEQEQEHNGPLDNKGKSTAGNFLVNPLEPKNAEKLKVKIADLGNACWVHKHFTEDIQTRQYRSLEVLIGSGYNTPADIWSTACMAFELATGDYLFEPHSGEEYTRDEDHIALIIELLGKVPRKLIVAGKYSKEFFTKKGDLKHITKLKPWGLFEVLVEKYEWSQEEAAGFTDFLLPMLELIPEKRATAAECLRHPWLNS

[5] = target: panel of more than 300 wild-type and mutant kinases (313 kinase panel) (Homo sapiens, UniProt P49760)
[6] = target: panel of more than 300 wild-type and mutant kinases (313 kinase panel) (Homo sapiens, UniProt P29376); details: kinase LTK; compound at 1 μM
[7] = target: panel of more than 300 wild-type and mutant kinases (313 kinase panel) (Homo sapiens, UniProt P23443); details: kinase p70S6K; 1 μM
[8] = target: panel of more than 300 wild-type and mutant kinases (313 kinase panel) (Homo sapiens, UniProt P07949, M918T)
Chain of panel of more than 300 wild-type and mutant kinases (313 kinase panel) (Homo sapiens, UniProt P07949, M918T) (P07949 29-1114 M918T): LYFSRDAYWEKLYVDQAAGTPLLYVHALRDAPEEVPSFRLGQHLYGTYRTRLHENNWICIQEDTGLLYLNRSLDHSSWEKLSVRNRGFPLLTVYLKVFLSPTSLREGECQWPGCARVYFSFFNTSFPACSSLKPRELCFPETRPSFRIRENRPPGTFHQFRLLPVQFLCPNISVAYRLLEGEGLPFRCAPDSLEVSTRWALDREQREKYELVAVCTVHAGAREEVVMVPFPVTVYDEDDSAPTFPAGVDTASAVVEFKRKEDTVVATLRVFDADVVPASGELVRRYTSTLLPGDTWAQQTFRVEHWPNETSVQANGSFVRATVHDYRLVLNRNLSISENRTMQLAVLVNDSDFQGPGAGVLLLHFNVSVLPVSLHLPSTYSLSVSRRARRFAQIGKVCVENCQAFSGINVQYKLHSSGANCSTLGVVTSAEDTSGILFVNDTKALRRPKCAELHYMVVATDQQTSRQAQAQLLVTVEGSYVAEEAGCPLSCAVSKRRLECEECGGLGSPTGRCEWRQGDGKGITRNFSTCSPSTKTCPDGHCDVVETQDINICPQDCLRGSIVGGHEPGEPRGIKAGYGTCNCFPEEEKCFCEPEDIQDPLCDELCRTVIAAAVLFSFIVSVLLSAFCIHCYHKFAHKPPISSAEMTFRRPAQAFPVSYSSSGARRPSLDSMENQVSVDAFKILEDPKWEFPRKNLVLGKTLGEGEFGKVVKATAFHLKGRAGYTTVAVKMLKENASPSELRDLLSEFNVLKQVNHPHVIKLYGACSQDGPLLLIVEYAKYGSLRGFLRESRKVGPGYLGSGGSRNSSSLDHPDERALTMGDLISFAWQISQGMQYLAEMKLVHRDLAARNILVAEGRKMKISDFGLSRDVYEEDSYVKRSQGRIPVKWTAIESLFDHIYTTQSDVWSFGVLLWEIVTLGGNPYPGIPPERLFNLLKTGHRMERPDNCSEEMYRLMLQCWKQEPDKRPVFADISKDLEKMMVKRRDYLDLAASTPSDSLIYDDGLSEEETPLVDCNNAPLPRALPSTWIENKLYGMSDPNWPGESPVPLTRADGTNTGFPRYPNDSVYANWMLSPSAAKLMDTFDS

[9] = target: T2, panel of more than 300 wild-type and mutant kinases (313 kinase panel) (Homo sapiens, UniProt P54762)
T2 sequence (P54762 18-984): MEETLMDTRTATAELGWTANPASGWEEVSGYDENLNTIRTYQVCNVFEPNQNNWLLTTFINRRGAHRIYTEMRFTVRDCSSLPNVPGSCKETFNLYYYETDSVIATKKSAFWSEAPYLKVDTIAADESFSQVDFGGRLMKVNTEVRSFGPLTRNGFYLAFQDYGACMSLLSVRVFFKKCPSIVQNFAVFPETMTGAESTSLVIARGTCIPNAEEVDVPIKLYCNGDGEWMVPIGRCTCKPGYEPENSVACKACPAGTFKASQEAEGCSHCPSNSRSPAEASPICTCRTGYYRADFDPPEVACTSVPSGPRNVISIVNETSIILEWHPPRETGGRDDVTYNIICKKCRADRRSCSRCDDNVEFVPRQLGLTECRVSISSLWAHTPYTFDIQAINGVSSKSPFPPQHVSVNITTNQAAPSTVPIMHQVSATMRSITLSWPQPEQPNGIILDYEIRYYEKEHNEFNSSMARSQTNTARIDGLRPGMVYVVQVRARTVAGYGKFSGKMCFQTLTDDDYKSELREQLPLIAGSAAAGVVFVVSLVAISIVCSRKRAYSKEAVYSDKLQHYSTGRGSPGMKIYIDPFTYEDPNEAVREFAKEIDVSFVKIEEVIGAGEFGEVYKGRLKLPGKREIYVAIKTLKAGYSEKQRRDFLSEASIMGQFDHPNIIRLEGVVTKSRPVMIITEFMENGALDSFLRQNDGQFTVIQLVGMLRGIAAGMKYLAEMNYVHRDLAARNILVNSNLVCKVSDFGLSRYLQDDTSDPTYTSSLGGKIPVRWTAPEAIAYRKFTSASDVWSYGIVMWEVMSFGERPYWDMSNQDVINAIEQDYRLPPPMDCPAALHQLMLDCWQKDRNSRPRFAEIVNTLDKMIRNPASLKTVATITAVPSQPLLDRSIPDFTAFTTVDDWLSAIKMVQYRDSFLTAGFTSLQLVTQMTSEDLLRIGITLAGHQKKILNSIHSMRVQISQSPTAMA

[10] = target: panel of more than 300 wild-type and mutant kinases (313 kinase panel) (Homo sapiens, UniProt Q96GD4)
Chain of panel of more than 300 wild-type and mutant kinases (313 kinase panel) (Homo sapiens, UniProt Q96GD4) (Q96GD4 whole entry, change not shown): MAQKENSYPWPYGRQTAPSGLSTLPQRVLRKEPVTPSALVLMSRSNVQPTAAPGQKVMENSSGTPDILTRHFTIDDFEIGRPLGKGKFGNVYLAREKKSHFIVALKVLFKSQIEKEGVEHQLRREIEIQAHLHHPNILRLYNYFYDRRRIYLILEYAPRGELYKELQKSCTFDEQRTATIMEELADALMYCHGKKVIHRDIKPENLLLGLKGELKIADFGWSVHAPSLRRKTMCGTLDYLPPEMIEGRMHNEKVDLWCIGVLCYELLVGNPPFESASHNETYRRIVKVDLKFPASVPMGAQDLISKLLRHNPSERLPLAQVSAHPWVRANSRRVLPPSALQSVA

[11] = target: panel of more than 300 wild-type and mutant kinases (313 kinase panel) (Homo sapiens, UniProt P51812); details: kinase RSK2; 1 μM
[12] = target: panel of more than 300 wild-type and mutant kinases (313 kinase panel) (Homo sapiens, UniProt Q9Y3S1); details: kinase WNK2; compound at 1 μM
[13] = kinase CDK9/CycT1, 1 μM compound

CS(=O)(=O)CCNCc1ccc(-c2ccc3ncnc(Nc4ccc(OCc5cccc(F)c5)c(Cl)c4)c3c2)o1 [lapatinib]
%-inhibition of MST2 ([1]; 1 µM): -0.701% | %-inhibition of FAK [2]: 10% | %-inhibition, CDK9/CycT1 ([3]; 1 µM): 0.501% | %-inhibition of SRPK1 [4]: 0.333% | %-inhibition, CLK2 ([5]; 1 µM): 3.6% | %-inhibition of LTK [6]: 4.66% | %-inhibition of p70S6K [7]: 8% | %-inhibition of RET(M918T) ([8]; 1 µM): -4.37% | %-inhibition of EPHB1 ([9]; 1 µM): -0.743% | %-inhibition, AurB ([10]; 1 µM): 9% | %-inhibition of RSK2 [11]: -1% | %-inhibition of WNK2 [12]: -5%

CNC(=O)c1cc(Oc2ccc(NC(=O)Nc3ccc(Cl)c(C(F)(F)F)c3)c(F)c2)ccn1 [regorafenib]
%-inhibition of MST2 ([1]; kinase MST2, 1 μM): -6.39% | %-inhibition of FAK [2]: -1.14% | %-inhibition, CDK9/CycT1 [3, 13]: 1% | %-inhibition of SRPK1 [4]: 27% | %-inhibition, CLK2 ([5]; kinase CLK2, 1 μM compound): -24% | %-inhibition of LTK [6]: -1.56% | %-inhibition of p70S6K [7]: 92% | %-inhibition of RET(M918T) ([8]; 1 µM): 102% | %-inhibition of EPHB1 ([9]; kinase EPHB1, compound at 1 μM): 76% | %-inhibition, AurB ([10]; kinase AurB, 1 μM compound): 20% | %-inhibition of RSK2 [11]: 6.66% | %-inhibition of WNK2 [12]: -4.43%

Cc1ccc(Nc2nccc(N(C)c3ccc4c(C)n(C)nc4c3)n2)cc1S(N)(=O)=O [pazopanib]
%-inhibition of MST2 ([1]; kinase MST2, 1 μM): 2% | %-inhibition of FAK [2]: 46% | %-inhibition, CDK9/CycT1 [3, 13]: 31% | %-inhibition of SRPK1 [4]: 8% | %-inhibition, CLK2 ([5]; kinase CLK2, 1 μM compound): 0.914% | %-inhibition of LTK [6]: 27% | %-inhibition of p70S6K [7]: 17% | %-inhibition of RET(M918T) ([8]; kinase RET(M918T), 1 μM): 86% | %-inhibition of EPHB1 ([9]; kinase EPHB1, compound at 1 μM): 27% | %-inhibition, AurB ([10]; kinase AurB, 1 μM compound): 45% | %-inhibition of RSK2 [11]: 9% | %-inhibition of WNK2 [12]: 3%

CO[C@H]1C[C@@H]2CC[C@@H](C)[C@@](O)(O2)C(=O)C(=O)N2CCCC[C@H]2C(=O)O[C@H]([C@H](C)C[C@@H]2CC[C@@H](OCCO)[C@H](OC)C2)CC(=O)[C@H](C)/C=C(\C)[C@@H](O)[C@@H](OC)C(=O)[C@H](C)C[C@H](C)/C=C/C=C/C=C/1C [everolimus]
%-inhibition of MST2 ([1]; kinase MST2, 1 μM): -2.3% | %-inhibition of FAK [2]: -4% | %-inhibition, CDK9/CycT1 [3, 13]: -4% | %-inhibition of SRPK1 [4]: 1.69% | %-inhibition, CLK2 ([5]; kinase CLK2, 1 μM compound): -17% | %-inhibition of LTK [6]: -12% | %-inhibition of p70S6K [7]: -13% | %-inhibition of RET(M918T) ([8]; kinase RET(M918T), 1 μM): -4.61% | %-inhibition of EPHB1 ([9]; kinase EPHB1, compound at 1 μM): -0.233% | %-inhibition, AurB ([10]; kinase AurB, 1 μM compound): -1.39% | %-inhibition of RSK2 [11]: -1.35% | %-inhibition of WNK2 [12]: -8%

CC(=O)Nc1cccc(-n2c(=O)n(C3CC3)c(=O)c3c(Nc4ccc(I)cc4F)n(C)c(=O)c(C)c32)c1 [trametinib]
%-inhibition of MST2 ([1]; kinase MST2, 1 μM): -3% | %-inhibition of FAK [2]: -2.41% | %-inhibition, CDK9/CycT1 [3, 13]: -2.31% | %-inhibition of SRPK1 [4]: -0.0691% | %-inhibition, CLK2 ([5]; kinase CLK2, 1 μM compound): -5% | %-inhibition of LTK [6]: -7% | %-inhibition of p70S6K [7]: -1.39% | %-inhibition of RET(M918T) ([8]; kinase RET(M918T), 1 μM): -1.41% | %-inhibition of EPHB1 ([9]; kinase EPHB1, compound at 1 μM): -8% | %-inhibition, AurB ([10]; kinase AurB, 1 μM compound): -4% | %-inhibition of RSK2 [11]: -1.76% | %-inhibition of WNK2 [12]: 1.45%

CO[C@H]1C[C@@H]2CC[C@@H](C)[C@@](O)(O2)C(=O)C(=O)N2CCCC[C@H]2C(=O)O[C@H]([C@H](C)C[C@@H]2CC[C@@H](OC(=O)C(C)(CO)CO)[C@H](OC)C2)CC(=O)[C@H](C)/C=C(\C)[C@@H](O)[C@@H](OC)C(=O)[C@H](C)C[C@H](C)/C=C/C=C/C=C/1C [temsirolimus]
%-inhibition of MST2 ([1]; kinase MST2, 1 μM): -3.41% | %-inhibition of FAK [2]: -5.48% | %-inhibition, CDK9/CycT1 [3, 13]: -3.29% | %-inhibition of SRPK1 [4]: 6% | %-inhibition, CLK2 ([5]; kinase CLK2, 1 μM compound): -4.4% | %-inhibition of LTK [6]: -10% | %-inhibition of p70S6K [7]: -13% | %-inhibition of RET(M918T) ([8]; kinase RET(M918T), 1 μM): -3.41% | %-inhibition of EPHB1 ([9]; kinase EPHB1, compound at 1 μM): -1.86% | %-inhibition, AurB ([10]; kinase AurB, 1 μM compound): -4% | %-inhibition of RSK2 [11]: -2.74% | %-inhibition of WNK2 [12]: -7%
